According to the supplement of paper PMC10307832:

What was measured:
Test in all cases: relative viability (nuclei count vs DMSO), 5 days (fraction); higher = more cells survive
[1] = compound: CCOc1cc2ncc(C#N)c(Nc3ccc(OCc4ccccn4)c(Cl)c3)c2cc1NC(=O)/C=C/CN(C)C [Neratinib] + Cc1cc(Nc2cc(N3CCN(C)CC3)nc(Sc3ccc(NC(=O)C4CC4)cc3)n2)n[nH]1 [Tozasertib] (partner 0.1 µM)
How it was run: (§1)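 Lung cancer cell lines were seeded in 1536-well plates and dosed by pin tool the next day, with either a single drug or a fixed anchor-drug dose combined with five library-drug doses (not always all listed) spaced in √10 steps. Five days later, one step fixed the cells and stained their nuclei (final 0.05% Triton X-100, 1% formaldehyde, 1 ug/ml Hoechst), and nuclei were counted on 4× images. Relative viability is the nuclei count in treated wells divided by the count in vehicle wells, and each value is the median of duplicate plates.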

[2] = compound: CCOc1cc2ncc(C#N)c(Nc3ccc(OCc4ccccn4)c(Cl)c3)c2cc1NC(=O)/C=C/CN(C)C [Neratinib] + Cc1nc(Nc2ncc(C(=O)Nc3c(C)cccc3Cl)s2)cc(N2CCN(CCO)CC2)n1 [Dasatinib] (partner 0.075 µM)
How it was run: as §1

[3] = compound: CCOc1cc2ncc(C#N)c(Nc3ccc(OCc4ccccn4)c(Cl)c3)c2cc1NC(=O)/C=C/CN(C)C [Neratinib] + CCNC(=O)c1noc(-c2cc(C(C)C)c(O)cc2O)c1-c1ccc(CN2CCOCC2)cc1 [Luminespib] (partner 0.01 µM)
How it was run: as §1

[4] = compound: CCOc1cc2ncc(C#N)c(Nc3ccc(OCc4ccccn4)c(Cl)c3)c2cc1NC(=O)/C=C/CN(C)C [Neratinib] + Cc1nc(NC(=O)N2CCC[C@H]2C(N)=O)sc1-c1ccnc(C(C)(C)C(F)(F)F)c1 [Alpelisib] (partner 2 µM)
How it was run: as §1

Cell Line | relative viability ([1]; first compound 0.01 µM) | relative viability ([1]; first compound 0.03162 µM) | relative viability ([1]; first compound 0.1 µM) | relative viability ([1]; first compound 0.3162 µM) | relative viability ([1]; first compound 1 µM) | relative viability ([2]; first compound 0.01 µM) | relative viability ([2]; first compound 0.03162 µM) | relative viability ([2]; first compound 0.1 µM) | relative viability ([2]; first compound 0.3162 µM) | relative viability ([2]; first compound 1 µM) | relative viability ([3]; first compound 0.01 µM) | relative viability ([3]; first compound 0.03162 µM) | relative viability ([3]; first compound 0.1 µM) | relative viability ([3]; first compound 0.3162 µM) | relative viability ([3]; first compound 1 µM) | relative viability ([4]; first compound 0.01 µM) | relative viability ([4]; first compound 0.03162 µM) | relative viability ([4]; first compound 0.1 µM) | relative viability ([4]; first compound 0.3162 µM) | relative viability ([4]; first compound 1 µM)
NCI-H358 | 0.0993 | 0.0867 | 0.0981 | 0.0713 | 0.0842 | 0.131 | 0.131 | 0.104 | 0.146 | 0.126 | 0.301 | 0.518 | 0.279 | 0.108 | 0.12 | 0.781 | 0.841 | 0.372 | 0.236 | 0.22
NCI-H441 | 0.611 | 0.775 | 0.666 | 0.384 | 0.334 | 0.696 | 0.488 | 0.611 | 0.305 | 0.175 | 0.415 | 0.413 | 0.423 | 0.304 | 0.16 | 0.972 | 0.906 |  | 0.504 | 0.254
NCI-H460 | 0.587 | 0.546 | 0.378 | 0.268 | 0.0381 | 0.524 | 0.527 | 0.446 | 0.455 | 0.317 | 0.0344 | 0.0284 | 0.0244 | 0.0268 | 0.0188 | 0.598 | 0.6 |  | 0.403 | 0.0801
NCI-H520 | 0.455 | 0.418 | 0.401 | 0.433 | 0.33 | 0.212 | 0.199 | 0.228 | 0.171 | 0.147 | 0.244 | 0.207 | 0.231 | 0.214 | 0.228 | 0.955 | 1.14 | 0.905 | 0.819 | 0.547
NCI-H596 | 0.862 | 0.961 | 0.736 | 0.857 | 0.601 |  | 0.659 | 0.749 | 0.5 | 0.436 | 1.04 | 1.04 | 1.02 | 1.02 | 0.758 | 0.464 | 0.474 | 0.433 | 0.489 | 0.304
NCI-H647 | 0.281 | 0.333 | 0.155 | 0.195 | 0.174 | 0.171 | 0.198 | 0.207 | 0.129 | 0.0912 | 0.308 | 0.128 | 0.0778 | 0.153 | 0.118 | 1.17 | 1.13 | 0.958 | 0.862 | 0.614
NCI-H650 | 0.749 | 0.829 | 0.654 | 0.668 | 0.583 | 0.489 | 0.493 | 0.477 | 0.416 | 0.463 | 0.814 | 0.888 | 0.621 | 0.722 | 0.392 | 1.13 | 1.32 | 0.999 |  | 0.85
NCI-H661 | 0.374 | 0.322 | 0.323 | 0.37 | 0.308 | 0.924 | 0.741 | 0.5 | 0.317 | 0.338 | 0.966 | 0.905 | 0.593 | 0.587 | 0.372 | 0.66 | 0.959 | 0.443 | 0.187 | 0.236
NCI-H727 | 0.675 | 0.535 | 0.5 | 0.53 | 0.34 | 0.36 | 0.359 | 0.335 | 0.333 | 0.225 | 0.382 | 0.337 | 0.328 | 0.312 | 0.352 | 0.525 | 0.542 |  | 0.441 | 0.276
NCI-H838 | 0.274 | 0.291 | 0.241 | 0.267 | 0.22 | 0.272 | 0.255 | 0.278 | 0.287 | 0.267 | 0.252 | 0.269 | 0.258 | 0.22 | 0.21 | 1.05 | 1.16 | 0.94 | 0.832 | 0.344
NCI-H1355 | 0.541 | 0.548 | 0.482 | 0.436 | 0.282 | 0.754 | 0.745 | 0.629 | 0.584 | 0.39 | 0.709 | 0.821 | 0.725 | 0.6 | 0.465 | 0.949 | 0.83 | 0.788 | 0.698 | 0.236
NCI-H1395 |  | 0.76 | 0.688 | 0.73 | 0.519 | 0.406 | 0.388 | 0.458 | 0.413 | 0.318 | 0.59 |  | 0.903 | 0.814 | 0.418 | 1.07 | 1.17 | 1.06 | 1.07 | 0.729
NCI-H1437 | 0.43 | 0.439 | 0.296 | 0.38 | 0.328 | 0.443 | 0.396 | 0.475 | 0.278 | 0.3 | 1.21 | 1.08 | 1 | 1.11 | 1.09 | 1.11 | 1.07 | 0.714 | 0.912 | 0.617
NCI-H1651 | 0.743 | 0.792 | 0.543 | 0.58 | 0.312 | 0.424 | 0.505 | 0.371 | 0.452 | 0.32 | 0.723 | 1.32 | 0.654 | 0.896 | 0.546 | 1.03 | 1 | 0.823 | 0.783 | 0.616
NCI-H1666 | 0.615 | 0.563 | 0.538 |  | 0.541 | 0.842 | 0.887 | 0.701 | 0.581 | 0.586 |  | 0.951 |  | 0.752 | 0.846 | 0.919 | 0.772 | 0.57 | 0.433 | 0.369
NCI-H1734 | 0.231 | 0.281 | 0.168 | 0.266 | 0.212 | 0.475 | 0.466 | 0.424 | 0.38 | 0.345 | 0.202 | 0.206 | 0.169 | 0.204 | 0.153 | 0.744 |  | 0.588 | 0.533 | 0.479
NCI-H1755 | 0.619 | 0.617 | 0.613 | 0.515 | 0.543 | 0.478 | 0.466 | 0.379 | 0.436 | 0.319 | 0.544 | 0.488 | 0.444 | 0.419 | 0.488 | 0.947 | 1.04 | 0.899 | 0.946 | 0.409
